Test results: patent US20250215039A1, “NUCLEOSIDES FOR TREATING CANCER” (PRIMEFOUR THERAPEUTICS, INC., priority 2022, published 2025)
Where two headings read alike, the source gives them in different places.

System: cancer cell lines
Assay: Cancer cell proliferation activity (CellTiterGlo, 72 h)
Format: cell-based
Conditions: 72 h, 72 h, read-out: IC50
Procedure, shortened: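 Readout is CellTiterGlo luminescence after 72 h compound exposure (0.1% DMSO final), started one day post-seeding, at 37 °C.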

With `CC[C@]1(CO)O[C@@H](n2cc(F)c(N)nc2=O)C[C@@H]1O` [Cpd. No. 2, 4-amino-1-((2R,4S,5R)-5-ethyl-4-hydroxy-5-(hydroxymethyl)tetrahydrofuran-2-yl)-5-fluoropyrimidin-2(1H)-one] the IC50 (5637 cell line (bladder)) was 8.67 µM, the IC50 (CLS439 cell line (bladder)) was > 50 µM and the IC50 (HS729 cell line (muscle)) was > 50 µM. For the same molecule, the IC50 (JAR cell line (placenta)) was > 50 µM, the IC50 (U20S cell line, bone) was > 50 µM and the IC50 (Homo sapiens, 22Rv1, 72 h, 22RV1 cell line (prostate)) was > 50 µM. For the same molecule, the IC50 (Homo sapiens, 786-0, 72 h, 786O cell line (kidney)) was > 50 µM, the IC50 (Homo sapiens, A204, 72 h, A204 cell line (muscle)) was 1 µM and the IC50 (Homo sapiens, A549, 72 h, A549 cell line, lung) was > 50 µM. For the same molecule, the IC50 (Homo sapiens, A673, 72 h, A673 cell line (bone)) was > 50 µM, the IC50 (Homo sapiens, A2780, 72 h, A2780 cell line (ovary)) was > 50 µM and the IC50 (Homo sapiens, A-375, 72 h, A375 cell line (skin)) was > 50 µM. For the same molecule, the IC50 (Homo sapiens, A-431, 72 h, A431 cell line (skin)) was > 50 µM, the IC50 (Homo sapiens, ACHN, ACHN cell line (kidney)) was 3.2 µM and the IC50 (Homo sapiens, ASPC1, 72 h, ASPC1 cell line (pancreas)) was > 50 µM. For the same molecule, the IC50 (Homo sapiens, BT-20, 72 h, BT20 cell line (breast)) was > 50 µM, the IC50 (Homo sapiens, BXPC-3, 72 h, BXPC3 cell line (pancreas)) was > 50 µM and the IC50 (Homo sapiens, C-33-A, C33A cell line, endometrial) was 4.92 µM. For the same molecule, the IC50 (Homo sapiens, CAKI-1, 72 h, CAKI1 cell line (kidney)) was 1.36 µM, the IC50 (Homo sapiens, COLO 205, 72 h, COLO205 cell line (colon)) was > 50 µM and the IC50 (Homo sapiens, COLO-678, 72 h, COLO678 cell line (colon)) was > 50 µM. The IC50 (Homo sapiens, Ca-Ski, CASKI cell line, endometrial) was > 50 µM, the IC50 (Homo sapiens, Caco-2, 72 h, CACO2 cell line (colon)) was > 50 µM and the IC50 (Homo sapiens, Calu-6, 72 h, CALU6 cell line (lung)) was > 50 µM. The IC50 (Homo sapiens, DLD-1, 72 h, DLD1 cell line (colon)) was > 50 µM, the IC50 (Homo sapiens, DU-145, 72 h, DU145 cell line (prostate)) was > 50 µM and the IC50 (Homo sapiens, EFO-21, 72 h, EFO21 cell line (ovary)) was > 50 µM. For the same molecule, the IC50 (Homo sapiens, EJ-28, 72 h, EJ28 cell line (bladder)) was > 50 µM, the IC50 (Homo sapiens, Granta-519, 72 h, GRANTA-519 cell line (hematological)) was 1.12 µM and the IC50 (Homo sapiens, HCT-15, 72 h, HCT15 cell line (colon)) was > 50 µM. The IC50 (Homo sapiens, HCT-116, 72 h, HCT116 cell line (colon)) was > 50 µM, the IC50 (Homo sapiens, HEK293, 72 h, HEK293 cell line (kidney)) was > 50 µM and the IC50 (Homo sapiens, HL-60, 72 h, HL-60 cell line (hematological)) was > 50 µM. For the same molecule, the IC50 (Homo sapiens, HT-29, 72 h, HT29 cell line (colon)) was > 50 µM, the IC50 (Homo sapiens, HT-1080, 72 h, HT1080 cell line (connective tissue)) was > 50 µM and the IC50 (Homo sapiens, HeLa, HELA cell line, endometrial) was > 50 µM. For the same molecule, the IC50 (Homo sapiens, HepG2, 72 h, HEPG2 cell line (liver)) was > 50 µM, the IC50 (Homo sapiens, Hs-578T, HS578T cell line, breast) was > 50 µM and the IC50 (Homo sapiens, IGROV-1, 72 h, IGROV1 cell line (ovary)) was > 50 µM. For the same molecule, the IC50 (Homo sapiens, IMR-90, 72 h, IMR90 cell line, lung) was > 50 µM, the IC50 (Homo sapiens, J82, 72 h, J82 cell line (bladder)) was > 50 µM and the IC50 (Homo sapiens, JEG-3, 72 h, JEG3 cell line (placenta)) was > 50 µM. For the same molecule, the IC50 (Homo sapiens, JIMT-1, 72 h, JIMT1 cell line (breast)) was > 50 µM, the IC50 (Homo sapiens, K562, 72 h, K-562 cell line (hematological)) was > 50 µM and the IC50 (Homo sapiens, Kasumi 1, 72 h, KASUMI-1 cell line (hematological)) was > 50 µM. For the same molecule, the IC50 (Homo sapiens, L-363, 72 h, L-363 cell line (hematological)) was > 50 µM, the IC50 (Homo sapiens, LoVo, LOVO cell line (colon)) was > 50 µM and the IC50 (Homo sapiens, MCF7, 72 h, MCF7 cell line (breast)) was > 50 µM. The IC50 (Homo sapiens, MDA-MB-231, 72 h, MDAMB231 cell line (breast)) was > 50 µM, the IC50 (Homo sapiens, MDA-MB-435, 72 h, MDAMB435 cell line (skin)) was > 50 µM and the IC50 (Homo sapiens, MDA-MB-436, 72 h, MDAMB436 cell line (breast)) was > 50 µM. For the same molecule, the IC50 (Homo sapiens, MDA-MB-468, 72 h, MDAMB468 cell line (breast)) was > 50 µM, the IC50 (Homo sapiens, MG-63, 72 h, MG63 cell line (bone)) was > 50 µM and the IC50 (Homo sapiens, MHH-ES-1, 72 h, MHHES1 cell line (bone)) was > 50 µM. For the same molecule, the IC50 (Homo sapiens, MIA PaCa-2, 72 h, MIAPACA2 cell line (pancreas)) was > 50 µM, the IC50 (Homo sapiens, MINO, MINO cell line (hematological)) was 0.25 µM and the IC50 (Homo sapiens, MV4-11, 72 h, MV4-11 cell line (hematological)) was 3.4 µM. The IC50 (Homo sapiens, NCI-H23, 72 h, NCI-H23 cell line (lung)) was > 50 µM, the IC50 (Homo sapiens, NCI-H82, 72 h, NCIH82 cell line (lung)) was > 50 µM and the IC50 (Homo sapiens, NCI-H292, 72 h, NCIH292 cell line (lung)) was > 50 µM. For the same molecule, the IC50 (Homo sapiens, NCI-H460, 72 h, NCIH460 cell line (lung)) was 5.15 µM, the IC50 (Homo sapiens, OVCAR-3, 72 h, OVCAR3 cell line (ovary)) was > 50 µM and the IC50 (Homo sapiens, OVCAR-4, 72 h, OVCAR4 cell line (ovary)) was > 50 µM. For the same molecule, the IC50 (Homo sapiens, PANC-1, 72 h, PANC1 cell line (pancreas)) was > 50 µM, the IC50 (Homo sapiens, PC-3, 72 h, PC3 cell line (prostate)) was > 50 µM and the IC50 (Homo sapiens, PLC-PRF-5, 72 h, PLCPRF5 cell line (liver)) was > 50 µM. For the same molecule, the IC50 (Homo sapiens, Panc1005, 72 h, PANC1005 cell line (pancreas)) was > 50 µM, the IC50 (Homo sapiens, RD, RD cell line (muscle)) was > 50 µM and the IC50 (Homo sapiens, Ramos, RAMOS cell line (hematological)) was 1.77 µM. For the same molecule, the IC50 (Homo sapiens, SAOS-2, 72 h, SAOS2 cell line (bone)) was > 50 µM, the IC50 (Homo sapiens, SF-268, 72 h, SF268 cell line (brain)) was > 50 µM and the IC50 (Homo sapiens, SF-295, 72 h, SF295 cell line (brain)) was > 50 µM. For the same molecule, the IC50 (Homo sapiens, SK-BR-3, 72 h, SKBR3 cell line (breast)) was 17 µM, the IC50 (Homo sapiens, SK-HEP1, 72 h, SKHEP1 cell line (liver)) was > 50 µM and the IC50 (Homo sapiens, SK-LMS-1, 72 h, SKLMS1 cell line (uterus)) was > 50 µM. The IC50 (Homo sapiens, SK-MEL-5, 72 h, SKMEL5 cell line, skin) was > 50 µM, the IC50 (Homo sapiens, SK-MEL-28, 72 h, SKMEL28 cell line (skin)) was > 50 µM and the IC50 (Homo sapiens, SK-N-AS, SKNAS cell line (brain)) was > 50 µM. The IC50 (Homo sapiens, SK-N-SH, SKNSH cell line (brain)) was > 50 µM, the IC50 (Homo sapiens, SK-OV-3, 72 h, SKOV3 cell line (ovary)) was > 50 µM and the IC50 (Homo sapiens, SNB-75, 72 h, SNB75 cell line (brain)) was > 50 µM. The IC50 (Homo sapiens, SU-DHL10, 72 h, SU-DHL-10 cell line (hematological)) was 1.97 µM, the IC50 (Homo sapiens, SU-DHL-6, 72 h, SU-DHL-6 cell line (hematological)) was > 50 µM and the IC50 (Homo sapiens, SW-620, 72 h, SW620 cell line (colon)) was > 50 µM. For the same molecule, the IC50 (Homo sapiens, T-24, 72 h, T24 cell line (bladder)) was > 50 µM, the IC50 (Homo sapiens, TE-671, 72 h, TE671 cell line (muscle)) was > 50 µM and the IC50 (Homo sapiens, THP-1, 72 h, THP-1 cell line (hematological)) was > 50 µM. The IC50 (Homo sapiens, U-87 MG, U87MG cell line (brain)) was > 50 µM, the IC50 (Homo sapiens, UMUC3, 72 h, UMUC3 cell line (bladder)) was > 50 µM and the IC50 (Homo sapiens, UO-31, 72 h, UO31 cell line (kidney)) was > 50 µM. For the same molecule, the IC50 (Homo sapiens, WSU-NHL, WSU-NHL cell line (hematological)) was 2.5 µM, the IC50 (MT-3, 72 h, MT3 cell line (breast)) was > 50 µM and the IC50 (NCI-H358M, NCIH358M cell line (lung)) was > 50 µM. The IC50 (PBMC, PBMC (hematological)) was > 50 µM and the IC50 (RD-ES, RDES cell line (bone)) was > 50 µM.
